From paper PMC3639963, “A New Class of Small Molecule Inhibitor of BMP Signaling” (PLoS ONE, 2013)

What was measured:
Test in all cases: Nanosyn kinase profiling
Type in all cases: biochemical
Settings in all cases: read-out: Percentage inhibition; for inhibition at 0.1 µM: 0.1 µM inhibitor; for inhibition at 1 µM: 1 µM inhibitor
CLK3 = target: T1, CLK3 (Homo sapiens, UniProt P49761)
T1 construct: purchased Nanosyn (enzymatic panel); SGC in-house recombinant human kinases (DSF panel); Invitrogen (ALK1-6)
Description: (§1) Percentage inhibition was determined for each kinase at both 0.1 µM and 1 µM inhibitor concentration (supplemental Table S2). […]. […]. When visualized on a kinase phylogenetic tree, these were primarily clustered within the receptor tyrosine kinases (TKs) as well as the calmodulin-dependent kinases (CAMKs) (Figure 2C).
(§2) Inhibitor selectivity profiling against 200 human kinases at 0.1 and 1 µM inhibitor concentration was performed by Nanosyn (www.nanosyn.com).

RET = target: T2, RET (Homo sapiens, UniProt P07949)
T2 construct: purchased Nanosyn (enzymatic panel); SGC in-house recombinant human kinases (DSF panel); Invitrogen (ALK1-6)
Description: as §1, §2

MNK2 = target: T3, MNK2 (Homo sapiens, UniProt Q9HBH9)
T3 construct: purchased Nanosyn (enzymatic panel); SGC in-house recombinant human kinases (DSF panel); Invitrogen (ALK1-6)
T3 sequence (Q9HBH9 whole entry): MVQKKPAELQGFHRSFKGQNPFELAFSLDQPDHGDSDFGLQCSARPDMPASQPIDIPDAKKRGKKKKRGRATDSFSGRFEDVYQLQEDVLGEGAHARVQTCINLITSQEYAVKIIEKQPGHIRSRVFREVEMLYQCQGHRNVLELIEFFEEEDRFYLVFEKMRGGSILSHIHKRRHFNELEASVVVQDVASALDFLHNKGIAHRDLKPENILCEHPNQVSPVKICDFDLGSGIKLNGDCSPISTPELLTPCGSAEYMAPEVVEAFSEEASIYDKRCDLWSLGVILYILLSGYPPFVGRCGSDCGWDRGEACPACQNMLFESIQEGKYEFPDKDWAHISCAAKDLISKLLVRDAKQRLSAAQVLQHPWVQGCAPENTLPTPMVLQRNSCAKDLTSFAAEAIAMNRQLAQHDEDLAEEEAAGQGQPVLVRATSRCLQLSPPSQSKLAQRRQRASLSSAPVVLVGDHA
Description: as §1, §2

NEK2 = target: T4, NEK2 (Homo sapiens, UniProt P51955)
T4 construct: purchased Nanosyn (enzymatic panel); SGC in-house recombinant human kinases (DSF panel); Invitrogen (ALK1-6)
T4 sequence (P51955 1-445): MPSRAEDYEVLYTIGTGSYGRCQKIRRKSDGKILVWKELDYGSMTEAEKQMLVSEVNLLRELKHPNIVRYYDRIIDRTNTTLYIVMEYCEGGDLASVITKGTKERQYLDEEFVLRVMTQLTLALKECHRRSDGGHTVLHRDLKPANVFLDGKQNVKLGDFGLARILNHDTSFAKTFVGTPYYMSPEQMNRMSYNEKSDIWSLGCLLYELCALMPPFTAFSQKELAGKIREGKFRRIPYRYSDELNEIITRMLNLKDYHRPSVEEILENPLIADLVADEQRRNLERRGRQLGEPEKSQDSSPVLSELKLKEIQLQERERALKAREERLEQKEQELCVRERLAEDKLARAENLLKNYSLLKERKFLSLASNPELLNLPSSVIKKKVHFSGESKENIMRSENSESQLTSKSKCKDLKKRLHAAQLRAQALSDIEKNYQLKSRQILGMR
Description: as §1, §2

AXL = target: T5, AXL (Homo sapiens, UniProt P30530)
T5 construct: purchased Nanosyn (enzymatic panel); SGC in-house recombinant human kinases (DSF panel); Invitrogen (ALK1-6)
T5 sequence (P30530 26-894): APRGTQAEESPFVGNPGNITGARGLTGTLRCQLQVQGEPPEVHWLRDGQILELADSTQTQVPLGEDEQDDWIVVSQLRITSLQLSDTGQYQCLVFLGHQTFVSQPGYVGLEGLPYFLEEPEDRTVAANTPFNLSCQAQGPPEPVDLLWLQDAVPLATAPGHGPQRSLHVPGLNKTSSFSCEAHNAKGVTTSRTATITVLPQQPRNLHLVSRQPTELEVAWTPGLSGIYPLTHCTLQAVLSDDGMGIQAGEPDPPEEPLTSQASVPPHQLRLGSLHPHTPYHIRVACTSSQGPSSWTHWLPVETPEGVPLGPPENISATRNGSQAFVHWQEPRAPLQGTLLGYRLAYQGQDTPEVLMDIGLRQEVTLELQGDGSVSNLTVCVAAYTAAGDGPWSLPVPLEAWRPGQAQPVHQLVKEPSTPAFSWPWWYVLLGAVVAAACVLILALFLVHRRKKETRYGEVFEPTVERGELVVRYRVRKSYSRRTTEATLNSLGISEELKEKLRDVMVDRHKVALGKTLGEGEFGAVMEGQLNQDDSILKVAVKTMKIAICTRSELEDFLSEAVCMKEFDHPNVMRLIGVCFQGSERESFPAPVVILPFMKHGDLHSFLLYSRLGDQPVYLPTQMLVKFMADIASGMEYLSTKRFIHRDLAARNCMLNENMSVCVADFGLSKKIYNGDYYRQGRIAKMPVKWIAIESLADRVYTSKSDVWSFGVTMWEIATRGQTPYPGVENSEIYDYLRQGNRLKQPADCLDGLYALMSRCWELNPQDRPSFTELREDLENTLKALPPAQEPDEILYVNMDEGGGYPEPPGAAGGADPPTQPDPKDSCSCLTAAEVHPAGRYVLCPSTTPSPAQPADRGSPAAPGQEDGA
Description: as §1, §2

MSK1 = target: T6, MSK1 (Homo sapiens, UniProt O75582)
T6 construct: purchased Nanosyn (enzymatic panel); SGC in-house recombinant human kinases (DSF panel); Invitrogen (ALK1-6)
Description: as §1, §2

NEK6 = target: T7, NEK6 (Homo sapiens, UniProt Q9HC98)
T7 construct: purchased Nanosyn (enzymatic panel); SGC in-house recombinant human kinases (DSF panel); Invitrogen (ALK1-6)
T7 sequence (Q9HC98 whole entry): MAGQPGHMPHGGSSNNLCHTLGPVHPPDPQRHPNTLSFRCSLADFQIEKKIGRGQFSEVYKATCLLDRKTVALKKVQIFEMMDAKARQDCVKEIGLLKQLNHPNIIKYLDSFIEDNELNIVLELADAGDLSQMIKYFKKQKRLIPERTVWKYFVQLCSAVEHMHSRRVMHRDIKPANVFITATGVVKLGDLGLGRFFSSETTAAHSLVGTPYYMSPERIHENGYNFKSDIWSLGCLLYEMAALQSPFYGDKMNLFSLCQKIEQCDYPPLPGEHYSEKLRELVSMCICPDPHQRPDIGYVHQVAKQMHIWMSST
Description: as §1, §2

FYN = target: T8, FYN (Homo sapiens, UniProt P06241)
T8 construct: purchased Nanosyn (enzymatic panel); SGC in-house recombinant human kinases (DSF panel); Invitrogen (ALK1-6)
T8 sequence (P06241 whole entry): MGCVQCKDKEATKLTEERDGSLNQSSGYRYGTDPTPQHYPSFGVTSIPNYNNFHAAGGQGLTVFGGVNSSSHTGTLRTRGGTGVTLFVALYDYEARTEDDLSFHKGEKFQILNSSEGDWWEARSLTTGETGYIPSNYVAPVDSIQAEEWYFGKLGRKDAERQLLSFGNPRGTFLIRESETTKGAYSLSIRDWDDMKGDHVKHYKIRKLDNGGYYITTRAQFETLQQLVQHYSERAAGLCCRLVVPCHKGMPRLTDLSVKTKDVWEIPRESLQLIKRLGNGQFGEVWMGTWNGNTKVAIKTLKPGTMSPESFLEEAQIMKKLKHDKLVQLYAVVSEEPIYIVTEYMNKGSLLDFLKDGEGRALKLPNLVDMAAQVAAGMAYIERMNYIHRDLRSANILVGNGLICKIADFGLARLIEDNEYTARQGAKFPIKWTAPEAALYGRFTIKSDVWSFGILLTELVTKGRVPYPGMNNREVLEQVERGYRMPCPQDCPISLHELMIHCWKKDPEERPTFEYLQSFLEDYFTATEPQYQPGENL
Description: as §1, §2

INSR = target: T9, INSR (Homo sapiens, UniProt P06213)
T9 construct: purchased Nanosyn (enzymatic panel); SGC in-house recombinant human kinases (DSF panel); Invitrogen (ALK1-6)
T9 sequence (P06213 28-1382): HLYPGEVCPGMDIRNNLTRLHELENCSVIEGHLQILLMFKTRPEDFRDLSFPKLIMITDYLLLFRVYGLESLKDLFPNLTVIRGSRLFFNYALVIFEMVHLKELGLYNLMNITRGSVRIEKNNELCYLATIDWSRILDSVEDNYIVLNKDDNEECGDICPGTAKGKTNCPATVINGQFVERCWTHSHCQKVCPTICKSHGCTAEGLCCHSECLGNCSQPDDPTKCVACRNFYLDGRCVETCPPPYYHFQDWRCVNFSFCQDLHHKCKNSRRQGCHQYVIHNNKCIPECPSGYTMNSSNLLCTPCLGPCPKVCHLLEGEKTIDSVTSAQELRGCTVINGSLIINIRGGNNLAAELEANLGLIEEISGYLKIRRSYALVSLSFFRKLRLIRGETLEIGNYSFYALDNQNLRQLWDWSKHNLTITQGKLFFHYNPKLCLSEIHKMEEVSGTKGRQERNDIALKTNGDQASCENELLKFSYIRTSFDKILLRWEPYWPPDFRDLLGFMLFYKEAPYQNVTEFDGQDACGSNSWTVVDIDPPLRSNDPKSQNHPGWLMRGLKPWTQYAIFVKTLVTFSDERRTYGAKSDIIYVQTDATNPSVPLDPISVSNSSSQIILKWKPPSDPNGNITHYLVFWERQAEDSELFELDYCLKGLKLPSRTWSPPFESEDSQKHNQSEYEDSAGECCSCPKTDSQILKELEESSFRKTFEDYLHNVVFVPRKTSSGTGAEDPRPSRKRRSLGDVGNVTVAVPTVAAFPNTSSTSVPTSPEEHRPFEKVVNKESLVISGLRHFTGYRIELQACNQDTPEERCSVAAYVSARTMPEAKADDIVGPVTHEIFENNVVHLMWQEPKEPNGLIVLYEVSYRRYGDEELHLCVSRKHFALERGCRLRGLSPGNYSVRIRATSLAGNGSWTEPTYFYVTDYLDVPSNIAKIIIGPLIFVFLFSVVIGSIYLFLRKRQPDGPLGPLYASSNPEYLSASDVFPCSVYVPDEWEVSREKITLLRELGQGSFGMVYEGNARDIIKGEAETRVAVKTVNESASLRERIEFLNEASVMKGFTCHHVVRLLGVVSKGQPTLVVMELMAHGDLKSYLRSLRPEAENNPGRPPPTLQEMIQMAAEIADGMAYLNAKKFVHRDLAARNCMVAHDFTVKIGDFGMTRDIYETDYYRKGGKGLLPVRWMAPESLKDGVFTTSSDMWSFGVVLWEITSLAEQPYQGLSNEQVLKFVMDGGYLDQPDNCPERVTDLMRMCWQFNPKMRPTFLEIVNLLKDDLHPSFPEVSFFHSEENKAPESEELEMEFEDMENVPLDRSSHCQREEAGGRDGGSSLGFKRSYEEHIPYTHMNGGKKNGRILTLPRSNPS
Description: as §1, §2

CHEK1 = target: T10, CHEK1 (Homo sapiens, UniProt O14757)
T10 construct: purchased Nanosyn (enzymatic panel); SGC in-house recombinant human kinases (DSF panel); Invitrogen (ALK1-6)
T10 sequence (O14757 1-476): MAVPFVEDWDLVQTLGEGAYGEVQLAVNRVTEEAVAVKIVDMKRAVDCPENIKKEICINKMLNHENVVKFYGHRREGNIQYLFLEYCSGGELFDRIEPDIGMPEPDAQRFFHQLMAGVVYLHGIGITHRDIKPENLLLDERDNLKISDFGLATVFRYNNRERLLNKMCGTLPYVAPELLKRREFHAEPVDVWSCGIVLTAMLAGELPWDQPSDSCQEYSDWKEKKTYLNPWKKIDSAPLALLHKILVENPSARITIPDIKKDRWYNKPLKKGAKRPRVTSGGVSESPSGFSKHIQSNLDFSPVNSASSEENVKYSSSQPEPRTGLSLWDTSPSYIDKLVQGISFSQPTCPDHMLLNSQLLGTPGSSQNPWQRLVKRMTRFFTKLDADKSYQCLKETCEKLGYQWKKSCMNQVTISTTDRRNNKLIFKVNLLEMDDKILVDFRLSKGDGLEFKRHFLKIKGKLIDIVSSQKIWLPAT
Description: as §1, §2

ROS = target: T11, ROS (Homo sapiens, UniProt P08922)
T11 construct: purchased Nanosyn (enzymatic panel); SGC in-house recombinant human kinases (DSF panel); Invitrogen (ALK1-6)
T11 sequence (P08922 28-2347): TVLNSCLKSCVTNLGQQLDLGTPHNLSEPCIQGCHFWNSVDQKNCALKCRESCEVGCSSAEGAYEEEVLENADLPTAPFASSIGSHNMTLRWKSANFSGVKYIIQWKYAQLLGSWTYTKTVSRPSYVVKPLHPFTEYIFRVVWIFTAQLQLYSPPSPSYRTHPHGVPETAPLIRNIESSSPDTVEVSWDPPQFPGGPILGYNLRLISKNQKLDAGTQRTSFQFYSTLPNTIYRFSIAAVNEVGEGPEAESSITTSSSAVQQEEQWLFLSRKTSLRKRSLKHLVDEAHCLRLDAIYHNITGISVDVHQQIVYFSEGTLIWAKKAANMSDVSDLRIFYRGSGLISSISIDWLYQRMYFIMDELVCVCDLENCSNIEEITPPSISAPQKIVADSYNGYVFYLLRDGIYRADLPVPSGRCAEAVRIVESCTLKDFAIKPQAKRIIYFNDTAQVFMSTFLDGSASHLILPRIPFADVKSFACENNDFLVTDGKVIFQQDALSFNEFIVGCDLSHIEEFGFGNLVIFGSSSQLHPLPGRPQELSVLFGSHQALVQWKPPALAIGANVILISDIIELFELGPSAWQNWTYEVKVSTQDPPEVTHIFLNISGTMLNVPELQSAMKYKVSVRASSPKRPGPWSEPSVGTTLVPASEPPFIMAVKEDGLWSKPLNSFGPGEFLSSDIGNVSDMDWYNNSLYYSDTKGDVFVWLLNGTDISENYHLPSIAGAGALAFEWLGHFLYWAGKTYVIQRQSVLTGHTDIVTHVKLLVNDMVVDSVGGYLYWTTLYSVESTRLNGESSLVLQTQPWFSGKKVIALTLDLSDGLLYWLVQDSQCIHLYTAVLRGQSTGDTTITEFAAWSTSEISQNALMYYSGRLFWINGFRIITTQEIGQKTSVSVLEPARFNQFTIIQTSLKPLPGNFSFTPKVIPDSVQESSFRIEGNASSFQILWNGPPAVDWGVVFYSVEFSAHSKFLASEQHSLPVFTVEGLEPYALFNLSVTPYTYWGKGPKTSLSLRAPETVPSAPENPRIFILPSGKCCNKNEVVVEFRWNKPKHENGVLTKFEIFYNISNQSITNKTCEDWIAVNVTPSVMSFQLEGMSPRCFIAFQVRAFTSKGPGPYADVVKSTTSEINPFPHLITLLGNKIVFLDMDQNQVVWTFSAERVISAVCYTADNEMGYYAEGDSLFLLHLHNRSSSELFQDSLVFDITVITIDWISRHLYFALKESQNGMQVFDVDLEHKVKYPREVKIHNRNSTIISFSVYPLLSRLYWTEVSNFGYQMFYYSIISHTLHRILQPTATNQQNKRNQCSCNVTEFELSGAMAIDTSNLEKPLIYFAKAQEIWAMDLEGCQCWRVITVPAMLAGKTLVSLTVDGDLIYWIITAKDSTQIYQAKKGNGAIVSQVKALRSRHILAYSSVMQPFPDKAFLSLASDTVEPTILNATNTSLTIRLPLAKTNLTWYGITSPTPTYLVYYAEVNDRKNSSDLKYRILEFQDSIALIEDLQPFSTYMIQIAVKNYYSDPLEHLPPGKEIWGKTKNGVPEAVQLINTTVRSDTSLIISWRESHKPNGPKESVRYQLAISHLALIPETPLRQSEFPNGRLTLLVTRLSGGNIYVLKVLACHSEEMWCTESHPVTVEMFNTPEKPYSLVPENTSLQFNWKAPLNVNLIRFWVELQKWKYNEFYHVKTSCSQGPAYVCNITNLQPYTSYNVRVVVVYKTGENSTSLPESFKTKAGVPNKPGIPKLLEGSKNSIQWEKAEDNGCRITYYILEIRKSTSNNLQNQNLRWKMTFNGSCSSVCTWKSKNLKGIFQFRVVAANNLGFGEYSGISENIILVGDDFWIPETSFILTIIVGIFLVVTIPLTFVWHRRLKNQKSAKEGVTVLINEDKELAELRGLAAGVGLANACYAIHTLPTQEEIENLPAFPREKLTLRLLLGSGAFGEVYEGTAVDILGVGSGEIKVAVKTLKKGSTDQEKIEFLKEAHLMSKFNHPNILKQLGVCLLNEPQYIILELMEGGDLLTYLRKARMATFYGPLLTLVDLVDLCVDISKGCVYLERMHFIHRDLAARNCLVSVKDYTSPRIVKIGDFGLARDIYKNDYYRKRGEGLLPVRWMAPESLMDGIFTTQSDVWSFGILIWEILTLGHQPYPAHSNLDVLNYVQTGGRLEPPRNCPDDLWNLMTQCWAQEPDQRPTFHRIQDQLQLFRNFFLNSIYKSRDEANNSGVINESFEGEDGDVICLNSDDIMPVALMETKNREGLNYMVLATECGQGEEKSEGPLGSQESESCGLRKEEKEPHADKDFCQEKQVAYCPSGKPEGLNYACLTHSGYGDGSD
Description: as §1, §2

SMILES	inhibition at 0.1 µM (CLK3) [%]	inhibition at 1 µM (CLK3) [%]	inhibition at 0.1 µM (RET) [%]	inhibition at 1 µM (RET) [%]	inhibition at 0.1 µM (MNK2) [%]	inhibition at 1 µM (MNK2) [%]	inhibition at 0.1 µM (NEK2) [%]	inhibition at 1 µM (NEK2) [%]	inhibition at 0.1 µM (AXL) [%]	inhibition at 1 µM (AXL) [%]	inhibition at 0.1 µM (MSK1) [%]	inhibition at 1 µM (MSK1) [%]	inhibition at 0.1 µM (NEK6) [%]	inhibition at 1 µM (NEK6) [%]	inhibition at 0.1 µM (FYN) [%]	inhibition at 1 µM (FYN) [%]	inhibition at 0.1 µM (INSR) [%]	inhibition at 1 µM (INSR) [%]	inhibition at 0.1 µM (CHEK1) [%]	inhibition at 1 µM (CHEK1) [%]	also measured
COc1cc(-c2cc(-c3cccc(O)c3)cnc2N)cc(OC)c1OC [K02288, 3-[6-amino-5-(3,4,5-trimethoxy-phenyl)-pyridin-3-yl]-phenol]	1.4	1.5	2.1	3.9	1.9	3.2	-2	-2	0.9	1.5	-2	-1	-2	-1	10	43	-4	0.7	-1	-2	inhibition at 0.1 µM (ROS): 1.8%; inhibition at 1 µM (ROS): 6.8%
c1ccc2c(-c3cnn4cc(-c5ccc(N6CCNCC6)cc5)cnc34)ccnc2c1 [LDN-193189]	0.5	2.6	4	16	3.7	31	2.8	1.2	-4	1.1	1.1	1.3	2.3	-1	18	60	3.8	4.5	2.9	0.3	inhibition at 0.1 µM (ROS): 3.8%; inhibition at 1 µM (ROS): 3.7%
